Patent US7118895B2, “Process for producing aglycon by using diglycosidase and flavor-improved food containing the aglycon and converting agent to be used in the process” (Amano Enzyme Inc., priority 2000, dated 2006)

How the values were obtained:
[1] = system: β-Glucosidase derived from A. niger; assay: Reactivity toward various isoflavone glycosides (HPLC); type: biochemical, Aspergillus niger; design: glucoside / aglycon: unit not given here; settings: 55 °C, pH 4.0
Summary of the method: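 Enzymes at 0.75 AU/mL in pH 4.0 acetate buffer were reacted at 55° C with individual isoflavone glycosides (substrate stock 2 mM in methanol) in 20 mM acetate pH 4.0. Aglycone release followed at 0, 1, 3 and 6 h: ethanol-quenched, ODS HPLC with UV 260 nm, quantified against calibration curves.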

[2] = system: Crude diglycosidase; assay: Examination of substrate concentration in the conversion into isoflavone aglycons by diglycosidase using soybean materials; type: biochemical, Penicillium multicolor IAM7153;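 on Decomposition efficiency: ratio of each glycoside/aglycon within its isoflavone family: percent of the isoflavone family total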
Summary of the method: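 Soybean materials (roasted soy flour, soymilk, defatted soybean, concentrated soy protein) at 2–30% (w/v) in 20 mM acetate pH 4.0 were reacted with crude diglycosidase at 55° C with shaking; enzyme solution added was 1.88 AU/mL. Samples taken at 0, 1, 3 and 6 h were ethanol-extracted and analyzed by HPLC.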

O=c1c(-c2ccc(O)cc2)coc2cc(O[C@@H]3O[C@H](CO)[C@@H](O)[C@H](O)[C@H]3O)ccc12 [daidzin]
reactivity of β-glucosidase derived from Aspergillus niger (in words) [1]: act well | aglycon ([1]; Reaction time 0 h): 0 | glucoside ([1]; Reaction time 0 h): 100 | aglycon ([1]; Reaction time 1 h): 100 | glucoside ([1]; Reaction time 1 h): 0 | aglycon ([1]; Reaction time 3 h): 100 | glucoside ([1]; Reaction time 3 h): 0 | aglycon ([1]; Reaction time 6 h): 100 | glucoside ([1]; Reaction time 6 h): 0 | Decomposition efficiency: ratio of each glycoside/aglycon within its isoflavone family ([2]; roasted soy flour, substrate concentration 2%, heat treatment of enzyme no, reaction time 0 h): 30.2% | Decomposition efficiency: ratio of each glycoside/aglycon within its isoflavone family ([2]; roasted soy flour, substrate concentration 2%, heat treatment of enzyme no, reaction time 1 h): not detected | Decomposition efficiency: ratio of each glycoside/aglycon within its isoflavone family ([2]; roasted soy flour, substrate concentration 2%, heat treatment of enzyme no, reaction time 3 h): not detected | Decomposition efficiency: ratio of each glycoside/aglycon within its isoflavone family ([2]; roasted soy flour, substrate concentration 2%, heat treatment of enzyme no, reaction time 6 h): not detected | Decomposition efficiency: ratio of each glycoside/aglycon within its isoflavone family ([2]; roasted soy flour, substrate concentration 2%, heat treatment of enzyme yes, reaction time 6 h): 46.6% | Decomposition efficiency: ratio of each glycoside/aglycon within its isoflavone family ([2]; roasted soy flour, substrate concentration 5%, heat treatment of enzyme no, reaction time 0 h): 46.1% | Decomposition efficiency: ratio of each glycoside/aglycon within its isoflavone family ([2]; roasted soy flour, substrate concentration 5%, heat treatment of enzyme no, reaction time 1 h): not detected | Decomposition efficiency: ratio of each glycoside/aglycon within its isoflavone family ([2]; roasted soy flour, substrate concentration 5%, heat treatment of enzyme no, reaction time 3 h): not detected | Decomposition efficiency: ratio of each glycoside/aglycon within its isoflavone family ([2]; roasted soy flour, substrate concentration 5%, heat treatment of enzyme no, reaction time 6 h): not detected | Decomposition efficiency: ratio of each glycoside/aglycon within its isoflavone family ([2]; roasted soy flour, substrate concentration 5%, heat treatment of enzyme yes, reaction time 6 h): 46.1% | Decomposition efficiency: ratio of each glycoside/aglycon within its isoflavone family ([2]; roasted soy flour, substrate concentration 10%, heat treatment of enzyme no, reaction time 0 h): 60.1% | Decomposition efficiency: ratio of each glycoside/aglycon within its isoflavone family ([2]; roasted soy flour, substrate concentration 10%, heat treatment of enzyme no, reaction time 1 h): not detected | Decomposition efficiency: ratio of each glycoside/aglycon within its isoflavone family ([2]; roasted soy flour, substrate concentration 10%, heat treatment of enzyme no, reaction time 3 h): not detected | Decomposition efficiency: ratio of each glycoside/aglycon within its isoflavone family ([2]; roasted soy flour, substrate concentration 10%, heat treatment of enzyme no, reaction time 6 h): not detected | Decomposition efficiency: ratio of each glycoside/aglycon within its isoflavone family ([2]; roasted soy flour, substrate concentration 10%, heat treatment of enzyme yes, reaction time 6 h): 47.5% | Decomposition efficiency: ratio of each glycoside/aglycon within its isoflavone family ([2]; roasted soy flour, substrate concentration 20%, heat treatment of enzyme no, reaction time 0 h): 50.3% | Decomposition efficiency: ratio of each glycoside/aglycon within its isoflavone family ([2]; roasted soy flour, substrate concentration 20%, heat treatment of enzyme no, reaction time 1 h): not detected | Decomposition efficiency: ratio of each glycoside/aglycon within its isoflavone family ([2]; roasted soy flour, substrate concentration 20%, heat treatment of enzyme no, reaction time 3 h): not detected | Decomposition efficiency: ratio of each glycoside/aglycon within its isoflavone family ([2]; roasted soy flour, substrate concentration 20%, heat treatment of enzyme no, reaction time 6 h): not detected | Decomposition efficiency: ratio of each glycoside/aglycon within its isoflavone family ([2]; roasted soy flour, substrate concentration 20%, heat treatment of enzyme yes, reaction time 6 h): 48.6% | Decomposition efficiency: ratio of each glycoside/aglycon within its isoflavone family ([2]; roasted soy flour, substrate concentration 30%, heat treatment of enzyme no, reaction time 0 h): 47.7% | Decomposition efficiency: ratio of each glycoside/aglycon within its isoflavone family ([2]; roasted soy flour, substrate concentration 30%, heat treatment of enzyme no, reaction time 1 h): not detected | Decomposition efficiency: ratio of each glycoside/aglycon within its isoflavone family ([2]; roasted soy flour, substrate concentration 30%, heat treatment of enzyme no, reaction time 3 h): not detected | Decomposition efficiency: ratio of each glycoside/aglycon within its isoflavone family ([2]; roasted soy flour, substrate concentration 30%, heat treatment of enzyme no, reaction time 6 h): not detected | Decomposition efficiency: ratio of each glycoside/aglycon within its isoflavone family ([2]; roasted soy flour, substrate concentration 30%, heat treatment of enzyme yes, reaction time 6 h): 49.0% | Decomposition efficiency: ratio of each glycoside/aglycon within its isoflavone family ([2]; soymilk, substrate concentration 2%, heat treatment of enzyme no, reaction time 0 h): 53.5% | Decomposition efficiency: ratio of each glycoside/aglycon within its isoflavone family ([2]; soymilk, substrate concentration 2%, heat treatment of enzyme no, reaction time 1 h): not detected | Decomposition efficiency: ratio of each glycoside/aglycon within its isoflavone family ([2]; soymilk, substrate concentration 2%, heat treatment of enzyme no, reaction time 3 h): not detected | Decomposition efficiency: ratio of each glycoside/aglycon within its isoflavone family ([2]; soymilk, substrate concentration 2%, heat treatment of enzyme no, reaction time 6 h): not detected | Decomposition efficiency: ratio of each glycoside/aglycon within its isoflavone family ([2]; soymilk, substrate concentration 2%, heat treatment of enzyme yes, reaction time 6 h): 39.8% | Decomposition efficiency: ratio of each glycoside/aglycon within its isoflavone family ([2]; soymilk, substrate concentration 5%, heat treatment of enzyme no, reaction time 0 h): 34.2% | Decomposition efficiency: ratio of each glycoside/aglycon within its isoflavone family ([2]; soymilk, substrate concentration 5%, heat treatment of enzyme no, reaction time 1 h): not detected | Decomposition efficiency: ratio of each glycoside/aglycon within its isoflavone family ([2]; soymilk, substrate concentration 5%, heat treatment of enzyme no, reaction time 3 h): not detected | Decomposition efficiency: ratio of each glycoside/aglycon within its isoflavone family ([2]; soymilk, substrate concentration 5%, heat treatment of enzyme no, reaction time 6 h): not detected | Decomposition efficiency: ratio of each glycoside/aglycon within its isoflavone family ([2]; soymilk, substrate concentration 5%, heat treatment of enzyme yes, reaction time 6 h): 40.5% | Decomposition efficiency: ratio of each glycoside/aglycon within its isoflavone family ([2]; soymilk, substrate concentration 10%, heat treatment of enzyme no, reaction time 0 h): 34.6% | Decomposition efficiency: ratio of each glycoside/aglycon within its isoflavone family ([2]; soymilk, substrate concentration 10%, heat treatment of enzyme no, reaction time 1 h): not detected | Decomposition efficiency: ratio of each glycoside/aglycon within its isoflavone family ([2]; soymilk, substrate concentration 10%, heat treatment of enzyme no, reaction time 3 h): not detected | Decomposition efficiency: ratio of each glycoside/aglycon within its isoflavone family ([2]; soymilk, substrate concentration 10%, heat treatment of enzyme no, reaction time 6 h): not detected | Decomposition efficiency: ratio of each glycoside/aglycon within its isoflavone family ([2]; soymilk, substrate concentration 10%, heat treatment of enzyme yes, reaction time 6 h): 39.4% | Decomposition efficiency: ratio of each glycoside/aglycon within its isoflavone family ([2]; soymilk, substrate concentration 20%, heat treatment of enzyme no, reaction time 0 h): 34.1% | Decomposition efficiency: ratio of each glycoside/aglycon within its isoflavone family ([2]; soymilk, substrate concentration 20%, heat treatment of enzyme no, reaction time 1 h): not detected | Decomposition efficiency: ratio of each glycoside/aglycon within its isoflavone family ([2]; soymilk, substrate concentration 20%, heat treatment of enzyme no, reaction time 3 h): not detected | Decomposition efficiency: ratio of each glycoside/aglycon within its isoflavone family ([2]; soymilk, substrate concentration 20%, heat treatment of enzyme no, reaction time 6 h): not detected | Decomposition efficiency: ratio of each glycoside/aglycon within its isoflavone family ([2]; soymilk, substrate concentration 20%, heat treatment of enzyme yes, reaction time 6 h): 39.8% | Decomposition efficiency: ratio of each glycoside/aglycon within its isoflavone family ([2]; soymilk, substrate concentration 30%, heat treatment of enzyme no, reaction time 0 h): 34.9% | Decomposition efficiency: ratio of each glycoside/aglycon within its isoflavone family ([2]; soymilk, substrate concentration 30%, heat treatment of enzyme no, reaction time 1 h): not detected | Decomposition efficiency: ratio of each glycoside/aglycon within its isoflavone family ([2]; soymilk, substrate concentration 30%, heat treatment of enzyme no, reaction time 3 h): not detected | Decomposition efficiency: ratio of each glycoside/aglycon within its isoflavone family ([2]; soymilk, substrate concentration 30%, heat treatment of enzyme no, reaction time 6 h): not detected | Decomposition efficiency: ratio of each glycoside/aglycon within its isoflavone family ([2]; soymilk, substrate concentration 30%, heat treatment of enzyme yes, reaction time 6 h): 40.0% | Decomposition efficiency of daidzin family in defatted soybean ([2]; substrate concentration 2%, heat treatment of enzyme no, reaction time 0 h): 42.3 | Decomposition efficiency of daidzin family in defatted soybean ([2]; substrate concentration 2%, heat treatment of enzyme no, reaction time 1 h): not detected | Decomposition efficiency of daidzin family in defatted soybean ([2]; substrate concentration 2%, heat treatment of enzyme no, reaction time 3 h): not detected | Decomposition efficiency of daidzin family in defatted soybean ([2]; substrate concentration 2%, heat treatment of enzyme no, reaction time 6 h): not detected | Decomposition efficiency of daidzin family in defatted soybean ([2]; substrate concentration 2%, heat treatment of enzyme yes, reaction time 6 h): 43.7 | Decomposition efficiency of daidzin family in defatted soybean ([2]; substrate concentration 5%, heat treatment of enzyme no, reaction time 0 h): 44.0 | Decomposition efficiency of daidzin family in defatted soybean ([2]; substrate concentration 5%, heat treatment of enzyme no, reaction time 1 h): not detected | Decomposition efficiency of daidzin family in defatted soybean ([2]; substrate concentration 5%, heat treatment of enzyme no, reaction time 3 h): not detected | Decomposition efficiency of daidzin family in defatted soybean ([2]; substrate concentration 5%, heat treatment of enzyme no, reaction time 6 h): not detected | Decomposition efficiency of daidzin family in defatted soybean ([2]; substrate concentration 5%, heat treatment of enzyme yes, reaction time 6 h): 45.8 | Decomposition efficiency of daidzin family in defatted soybean ([2]; substrate concentration 10%, heat treatment of enzyme no, reaction time 0 h): 45.6 | Decomposition efficiency of daidzin family in defatted soybean ([2]; substrate concentration 10%, heat treatment of enzyme no, reaction time 1 h): not detected | Decomposition efficiency of daidzin family in defatted soybean ([2]; substrate concentration 10%, heat treatment of enzyme no, reaction time 3 h): not detected | Decomposition efficiency of daidzin family in defatted soybean ([2]; substrate concentration 10%, heat treatment of enzyme no, reaction time 6 h): not detected | Decomposition efficiency of daidzin family in defatted soybean ([2]; substrate concentration 10%, heat treatment of enzyme yes, reaction time 6 h): 47.5
